Drawing on ChEMBL document CHEMBL1144274, “Novel spiroanellated 1,2,4-trioxanes with high in vitro antimalarial activities” (Bioorg Med Chem Lett, 2005), this text covers IC50 for eight compounds.

Values after ≈ are worked out from the molar mass of the structure shown.

The subject of test [1] is Plasmodium falciparum. Briefly: In vitro inhibition of Plasmodium falciparum K1 (0.0013 ug/mL). The test is classed as functional, organism-based.
Test [2] can be described thus: In vitro cytotoxicity against mammalian L-6 cell line. The test is classed as functional, cell-based. As to conditions: L6.
Test [3] relates to Plasmodium falciparum. The experiment in a line: In vitro inhibition of Plasmodium falciparum K1 (0.2253 ug/mL). Format: functional, organism-based.
Test [4] has as its system Plasmodium falciparum. The experiment in a line: In vitro inhibition of Plasmodium falciparum K1 (0.00065 ug/mL). Format: functional, organism-based.
Test [5] relates to Plasmodium falciparum. Briefly: In vitro inhibition of Plasmodium falciparum K1 (0.0024 ug/mL). The test is classed as functional, organism-based.
The test system of test [6] is Plasmodium falciparum. The experiment in a line: In vitro inhibition of Plasmodium falciparum K1 (0.00054 ug/mL). Format: functional, organism-based.
Test [7] relates to Plasmodium falciparum. Briefly: In vitro inhibition of Plasmodium falciparum K1 (0.0088 ug/mL). Format: functional, organism-based.
Test [8] concerns Plasmodium falciparum. The experiment in a line: In vitro inhibition of Plasmodium falciparum K1 (0.0008 ug/mL). Format: functional, organism-based.

Regarding `C=C(C)C1OO[C@]2(O[C@H]1C)[C@H]1CC3C[C@@H](C1)C[C@H]2C3` (stereo partly drawn), the results for the IC50 (with Plasmodium falciparum [1]; in test [2]) were 4.9 nM and 1.7 µg/mL (≈ 6.43 µM), respectively.
For the compound `C=C(C)[C@@H]1OOC(C)(C)O[C@H]1C`, the half-maximal inhibitory concentration (IC50) (in general, the concentration that gives 50% inhibition) with Plasmodium falciparum [3] is 1310 nM. This lies in the single-digit micromolar range.
On to `C=C(C)[C@@H]1OOC2(CCCCC2)O[C@H]1C`, for which the IC50 with Plasmodium falciparum [4] came to 3.1 nM; in test [2], 0.46 µg/mL (≈ 2.17 µM).
`C=C(C)[C@@H]1OOC2(CCCC2)O[C@H]1C(C)C`: the IC50 stood at 10.6 nM with Plasmodium falciparum [5] and 0.82 µg/mL (≈ 3.62 µM) in test [2].
`C=C(C)C1OO[C@]2(O[C@H]1C1CC1)[C@H]1CC3C[C@@H](C1)C[C@H]2C3` (stereo partly drawn): the IC50 with Plasmodium falciparum [6] was found to be 1.9 nM; in test [2], 0.74 µg/mL (≈ 2.55 µM).
In the case of `C=C(C)[C@@H]1OOC2(CCCC2)O[C@H]1C(C)(C)C`, the concentration for half-maximal inhibition (IC50) in the test with Plasmodium falciparum [7] worked out at 36.6 nM; in test [2] it was 3.7 µg/mL (≈ 15.4 µM).
Compound `C[C@@H]1CC[C@H]2[C@@H](C)C(=O)O[C@@H]3O[C@@]4(C)CC[C@@H]1[C@]32OO4` [ARTEMISININ] had an IC50 in the test on Plasmodium falciparum [8] of 2.8 nM.
The compound `O[C@H](c1cc(C(F)(F)F)nc2c(C(F)(F)F)cccc12)[C@@H]1CCCCN1` [MEFLOQUINE] gave a concentration for half-maximal inhibition (IC50) in test [2] of 1.9 µg/mL (≈ 5.02 µM).
